Literature values as cited in patent US10352931B2 (priority 2013, dated 2019).

Molecular target: glutamate carboxypeptidase II (Homo sapiens, UniProt Q04609)
Conditions: examples of inhibitors, Table 1

Chain of glutamate carboxypeptidase II (Q04609 whole entry, species assumed): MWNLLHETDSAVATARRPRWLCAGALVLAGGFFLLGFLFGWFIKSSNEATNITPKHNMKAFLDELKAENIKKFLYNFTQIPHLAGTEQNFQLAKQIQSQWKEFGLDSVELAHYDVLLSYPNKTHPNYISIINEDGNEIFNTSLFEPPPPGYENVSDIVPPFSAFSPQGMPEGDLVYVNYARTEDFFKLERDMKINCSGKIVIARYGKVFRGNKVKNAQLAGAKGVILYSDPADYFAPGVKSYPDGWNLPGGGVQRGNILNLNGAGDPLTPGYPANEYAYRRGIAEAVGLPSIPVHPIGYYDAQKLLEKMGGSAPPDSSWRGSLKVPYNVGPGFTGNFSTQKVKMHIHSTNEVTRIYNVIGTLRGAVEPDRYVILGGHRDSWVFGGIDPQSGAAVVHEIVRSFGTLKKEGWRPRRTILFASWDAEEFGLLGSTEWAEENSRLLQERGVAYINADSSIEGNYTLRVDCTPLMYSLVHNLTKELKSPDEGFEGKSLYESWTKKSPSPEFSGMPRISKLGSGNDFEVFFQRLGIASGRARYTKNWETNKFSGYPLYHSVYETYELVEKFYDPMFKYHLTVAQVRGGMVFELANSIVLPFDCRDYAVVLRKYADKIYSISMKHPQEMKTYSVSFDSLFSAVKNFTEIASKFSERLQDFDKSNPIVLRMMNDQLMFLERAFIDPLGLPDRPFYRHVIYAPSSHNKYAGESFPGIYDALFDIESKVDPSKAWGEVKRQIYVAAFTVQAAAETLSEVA

For “(S)-2-(hydroxypentafluorophenylmethyl-phosphinoylmethyl)pentanedioic acid”, the IC50 is listed as 34 nM.
